The NIST ThermoML archive (doi:10.1016/j.jct.2016.07.008)

Assay: xn = mol fraction of the nth substance listed
Settings: 353.15 K, Liquid, Vibrating wire viscometry

Cc1ccc(C)c(C)c1 [1,2,4-trimethylbenzene] + CCCCO
viscosity [mPa·s]
Settings	x2 = 0.2999	x2 = 0.5289	x2 = 0.7991
100 kPa	0.4547	0.495	0.6105
1000 kPa	0.4576	0.4993	0.618
5000 kPa	0.4793	0.5174	0.6396
10000 kPa	0.4978	0.5381	0.667
20000 kPa	0.5414	0.5739	0.7229
30000 kPa	0.577	0.6155	0.7805
40000 kPa	0.6166	0.6521	0.8397
50000 kPa	0.659	0.6945	0.9004
60000 kPa	0.7031	0.7392	0.9627
70000 kPa	0.7463	0.7855	1.026
80000 kPa	0.7895	0.8338	1.092
100000 kPa	0.8968	0.9482	1.226
120000 kPa	0.997	1.062	1.367
140000 kPa	1.117	1.194	1.512
